Assay [1] deals with T1, human H3 receptor (Homo sapiens, UniProt Q9Y5N1).
T1 construct: expressed in transfected cells
As to the kind of experiment: In vitro H3 binding assay (3H-N-α-methyl-histamine competition binding). Conditions: membranes of CHO-K1 cells expressing human H3 receptor; 2 nM 3H-NαMH; read-out: hH3 binding IC50. The method, boiled down: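 Membranes from CHO-K1 cells stably expressing human H3 (5 μg/well) incubated 1 h at room temperature with compound and 2 nM ³H-NαMH in 50 mM Tris-HCl pH 7.4, 5 mM MgCl2; non-specific binding defined with 1 μM RαMH. Bound radioactivity measured by filtration and scintillation; IC50 from seven-point curves by variable-slope sigmoidal regression.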

Assay [2] concerns the target T1, human H3 receptor. The assay can be described thus: In vitro H3 functional assay (cAMP response element driven luciferase reporter). In kind it is cell-based. To be noted: CHO(dhfr+)-cre-luc cells expressing human H3 receptor; RαMH 10 nM, forskolin 1 μM; read-out: hH3 functional IC50. On the procedure: The functional activity of compounds at the H3 receptor was determined by measuring changes in the level of intracellular cAMP using a cAMP response element driven luciferase reporter assay. The changes in luciferase expression were monitored by a luminescence plate reader, Analyst HT (MDS Analytical). Increases in intracellular cAMP were readily detected upon activation of protein kinase A by forskolin (Sigma) and suppression of this response observed with the application of the H3 receptor agonist RαMH (Sigma).
CHO(dhfr^+)-cre-luc cells stably expressing human H3 receptor were routinely grown as monolayers in Minimal Essential Medium α (MEMα) (Invitrogen) supplemented with 10% dialysed FBS (Hyclone), in 5% CO2 at 37° C. 48 hours prior to assay, cells were seeded in clear-base white walled 384-well plates (Corning) at a density of 5000 cells/well. On the day of assay, growth media was removed and replaced with […] of assay buffer (MEMα, 5 mg/ml fatty acid free BSA (Sigma)) per well. Cells were then incubated for 30 minutes at 37° C., 5% CO2. Compound was serially diluted in DMSO before being diluted 1:10 with assay buffer. 2.5 of compound diluted in assay buffer was added and cells incubated for 5 minutes at 37° C., 5% CO2. 2.5 μl of each reagent was then added in the following order: RαMH (10 nM), isobutylmethylxanthine (1-methyl-3-(2-methylpropyl)-7H-purine-2,6-dione; IBMX) (500 μM) (Sigma) and forskolin (1 μM). Cells were then incubated for 90 minutes at 37° C., 5% CO2, followed by 30 minutes at room temperature. At the end of incubation 25 μl of Steadylite reagent (Perkin Elmer) was added, plates were sealed and placed on a shaker for 5 minutes. The level of light output to determine the level of luciferase expression was then measured.
IC50 values for compounds were determined from ten point half log scale dose-response studies and represent the concentration of compound required to […] 50% inhibition of forskolin stimulated cells in the presence of RαMH alone. Curves were generated using the average of duplicate wells for each data point and analyzed using nonlinear regression of four parameter dose response.
In general terms: In a reporter assay the amount or activity of a reporter protein is the signal.

T1 sequence (Q9Y5N1 whole entry): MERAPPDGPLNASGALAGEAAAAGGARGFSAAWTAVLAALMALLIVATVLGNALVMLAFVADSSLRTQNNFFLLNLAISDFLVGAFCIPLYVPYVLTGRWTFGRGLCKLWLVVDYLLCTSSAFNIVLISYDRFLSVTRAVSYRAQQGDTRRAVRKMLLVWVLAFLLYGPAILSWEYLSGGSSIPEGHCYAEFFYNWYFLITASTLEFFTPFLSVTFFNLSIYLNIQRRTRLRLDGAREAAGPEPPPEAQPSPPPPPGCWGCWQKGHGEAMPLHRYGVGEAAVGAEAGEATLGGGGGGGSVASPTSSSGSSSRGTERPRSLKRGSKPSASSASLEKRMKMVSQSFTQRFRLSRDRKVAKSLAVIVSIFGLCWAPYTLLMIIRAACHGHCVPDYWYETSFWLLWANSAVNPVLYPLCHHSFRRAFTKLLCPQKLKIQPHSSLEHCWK

The term IC50 denotes the concentration that gives 50% inhibition. With `CCNC(=O)C1CCC(O)(Cc2ccc3c(c2)CCN(C2CCC2)CC3)CC1` (stereo not shown) [Example 231, 4-((3-cyclobutyl-2,3,4,5-tetrahydro-1H-benzo[d]azepin-7-yl)methyl)-N-ethyl-4-hydroxycyclohexanecarboxamide], the 50% inhibitory concentration (IC50) on human H3 receptor [1] is 23 nM; on human H3 receptor [2], 15 nM.
For `CC(C)(O)c1ccc(C(=O)NCc2ccc3c(c2)CCN(C2CCC2)CC3)cn1` [Example 239, N-((3-cyclobutyl-2,3,4,5-tetrahydro-1H-benzo[d]azepin-7-yl)methyl)-6-(2-hydroxypropan-2-yl)nicotinamide] the same measures were 16 nM and 1 nM.
`O=C(NCc1ccc2c(c1)CCN(C1CC(F)C1)CC2)c1ccc(N2CCCC2)nc1` (stereo not shown) [Example 242, N-((3-(3-fluorocyclobutyl)-2,3,4,5-tetrahydro-1H-benzo[d]azepin-7-yl)methyl)-6-(pyrrolidin-1-yl)nicotinamide]: the IC50 at human H3 receptor [1] is 0.6 nM; at human H3 receptor [2], 3 nM.
For `COc1ccc(CC(=O)Cc2ccc3c(c2)CCN(C2CCC2)CC3)cn1` [Example 244, 1-(3-cyclobutyl-2,3,4,5-tetrahydro-1H-benzo[d]azepin-7-yl)-3-(6-methoxypyridin-3-yl)propan-2-one], in that order: 10 nM and 6 nM.
For `O=C(NCc1ccc2c(c1)CCN(C1CCC1)CC2)c1ccc(NC2CCC2)nc1` [Example 253, N-((3-cyclobutyl-2,3,4,5-tetrahydro-1H-benzo[d]azepin-7-yl)methyl)-6-(cyclobutylamino)nicotinamide] the same measures were 1 nM and 4 nM.
For `O=C(NCc1ccc2c(c1)CCN(C1CCC1)CC2)c1cnc(N2CCCC2)nc1` [Example 256, N-((3-cyclobutyl-2,3,4,5-tetrahydro-1H-benzo[d]azepin-7-yl)methyl)-2-(pyrrolidin-1-yl)pyrimidine-5-carboxamide], in that order: 0.3 nM and 3 nM.
Consider `COc1ccc(C(=O)NCc2ccc3c(c2)CCN(C2CC(O)C2)CC3)cn1` (stereo not shown) [Example 262, N-((3-(3-hydroxycyclobutyl)-2,3,4,5-tetrahydro-1H-benzo[d]azepin-7-yl)methyl)-6-methoxynicotinamide], for which the concentration for half-maximal inhibition (IC50) at human H3 receptor [1] amounted to 25 nM; at human H3 receptor [2], 10 nM.
`Cc1noc(C)c1C(=O)NCc1ccc2c(c1)CCN(C1CCC1)CC2` [Example 263, N-[(3-cyclobutyl-2,3,4,5-tetrahydro-1H-3-benzazepin-7-yl)methyl]-3,5-dimethyl-1,2-oxazole-4-carboxamide]: the IC50 is 18 nM at human H3 receptor [1] and 6 nM on human H3 receptor [2].
For `C[C@@H]1CCCN1C(=O)NCc1ccc2c(c1)CCN(C1CCC1)CC2` [Example 265, (R)—N-((3-cyclobutyl-2,3,4,5-tetrahydro-1H-benzo[d]azepin-7-yl)methyl)-2-methylpyrrolidine-1-carboxamide] the same measures were 6 nM and 4 nM.
For `O=C1CCCN1Cc1ccc2c(c1)CCN(C1CCC1)CC2` [Example 304, 1-((3-cyclobutyl-2,3,4,5-tetrahydro-1H-benzo[d]azepin-7-yl)methyl)pyrrolidin-2-one], in that order: 61 nM and 34 nM.
For `CCCOc1ccc(C(=O)NCc2ccc3c(c2)CCN(C2CCC2)CC3)cn1` [Example 306, N-((3-cyclobutyl-2,3,4,5-tetrahydro-1H-benzo[d]azepin-7-yl)methyl)-6-propoxynicotinamide], in that order: 18 nM and 2 nM.

For the origin of these results see patent publication US20110124626A1, “BENZAZEPINE DERIVATIVES AND THEIR USE AS HISTAMINE H3 ANTAGONISTS” (TAKEDA PHARMACEUTICAL COMPANY LIMITED, priority 2008, published 2011).
